Assay results as given in publication PMC8225008, “Development of Non-Ethoxypropanoic Acid Type Cryptochrome Inhibitors with Circadian Molecular Clock-Enhancing Activity by Bioisosteric Replacement” (Pharmaceuticals, 2021).

Biological target: T1, hCRY1 (Homo sapiens, UniProt Q16526)
T1 sequence (Q16526 1-586): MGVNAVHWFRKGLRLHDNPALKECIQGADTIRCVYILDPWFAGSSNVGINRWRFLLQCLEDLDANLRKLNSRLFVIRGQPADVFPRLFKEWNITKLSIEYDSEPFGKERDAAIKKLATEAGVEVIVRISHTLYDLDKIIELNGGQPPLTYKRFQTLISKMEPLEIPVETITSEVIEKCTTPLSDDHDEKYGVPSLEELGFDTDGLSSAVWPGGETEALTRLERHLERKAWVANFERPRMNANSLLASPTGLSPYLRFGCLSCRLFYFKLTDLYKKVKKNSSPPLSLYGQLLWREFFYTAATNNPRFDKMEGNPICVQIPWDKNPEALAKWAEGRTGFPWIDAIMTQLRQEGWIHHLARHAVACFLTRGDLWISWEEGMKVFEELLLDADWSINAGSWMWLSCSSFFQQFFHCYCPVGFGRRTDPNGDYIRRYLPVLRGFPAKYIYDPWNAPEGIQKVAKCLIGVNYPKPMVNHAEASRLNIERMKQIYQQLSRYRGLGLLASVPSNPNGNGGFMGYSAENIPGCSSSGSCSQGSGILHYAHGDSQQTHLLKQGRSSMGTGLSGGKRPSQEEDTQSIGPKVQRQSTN
Test: Surface plasmon resonance, CRY1
Format: binding
Set-up: GST; purchased MyBioSource; host or cells: baculovirus expression system
Conditions: SPR, His-tagged CRY1, Langmuir 1:1 model
Method: We used a ProteOn XPR36 system (Bio-Rad, Hercules, CA, USA) equipped with a HTE sensor chip (high capacity tris-NTA for histidine-tagged […] capture, Bio-Rad) for surface plasmon resonance analyses. Purified target proteins (6xHis- and GST-tagged hCRY1 and hCRY2) were prepared by a baculovirus expression system (MyBioSource, San Diego, CA, USA). Phosphate buffered saline (PBS) plus 0.005% Tween 20 was used as the running buffer. The 6xHis-hCRY1 and 6xHis-hCRY2 proteins were immobilized onto separate channels of a HTE chip by injecting 210 μL protein sample (2.0 μg/mL) into flow cells (30 μL/min) to allow saturation. Serially diluted compound 2d samples (50–800 μM) were prepared in 4% DMSO in TBS-T buffer. […] Recorded resonance units (RU) were normalized and plotted against chemical concentration. […]
The EC50 values for luciferase reporter assay were calculated based on a logistic four-parametric equation using the mean values of intrinsic activation (SigmaPlot 10.0; Systat Software Inc., San Jose, CA, USA). The IC50 and t1/2 values for the cytochrome P450 inhibition assay and metabolic stability test were calculated by WinNonlin software (Pharsight, Mountain View, CA, USA). Pharmacokinetic parameters were calculated using non-compartmental analysis (WinNonlin v.8.3; Pharsight, Mountain View, CA, USA). […]

Kd: 389 µM
SMILES: CC(=NOCc1ccc([N+](=O)[O-])cc1)c1cccc(OCC(=O)O)c1 [Compound 2d, 2-(3-(1-(((4-nitrobenzyl)oxy)imino)ethyl)phenoxy)acetic acid]
